Assay results taken from US4139628A, “Amino-spiro[oxa(or thia)cycloalkane-penam]-carboxylic acid derivatives” (U C B, Societe Anonyme, priority 1977, dated 1979).

Tests used:
[1] = tested on: Escherichia coli B AMPI-R; experiment: minimum inhibitory concentration (MIC), gelose culture medium in Petri dishes; type: cell-based; conditions: relative MIC (ampicillin = 1) on E. COLI B versus its beta-lactamase hyperproducer mutant
Protocol: This is a mutant of the preceding strain, which we have produced.
(§1) The products to be tested are introduced in increasing concentrations into a gelose culture medium in Petri dishes. A multiple inoculator is used to deposit simultaneously drops (10 microliters) of inoculum (suspension of about 10^5 bacteria per ml) onto the surface of the medium. After incubation at 37° C. for 24 hours, the growth of the bacteria is observed. By definition, the MIC is expressed as the minimum concentration of the tested compounds which inhibits the multiplication of the bacteria. In the results which follow, however, the MIC is given as being equal to 1 for the reference compounds and the activity figures given for the tested compounds of general formula (I) are, therefore, relative values. This presentation of the results is more correct and the most reproducible, because, for one and the same bacterial strain, different MIC values can be observed if they are measured at different times. This is bound up with the "seasonal" variations in the strains and their nutrient medium.

beta-lactamase TEM = experiment: hydrolysis kinetics in the presence of beta-lactamase (residual activity); type: biochemical, Gram-negative bacteria; conditions: after incubation for 6 minutes
[2] = tested on: Escherichia coli K 12-44 S; type: cell-based; conditions: E.COLI K 12-44S; relative to ampicillin = 1
Protocol: It is very sensitive to penicillins due to hyperpermeability.
as §1

beta-lactamase P 99 = target: T1, beta-lactamase P 99 (Enterobacter cloacae, UniProt P05364); experiment: hydrolysis kinetics in the presence of beta-lactamase (residual activity); type: biochemical, Gram-negative bacteria; conditions: as compared with ampicillin
T1 construct: source not detailed
T1 sequence (P05364 21-381): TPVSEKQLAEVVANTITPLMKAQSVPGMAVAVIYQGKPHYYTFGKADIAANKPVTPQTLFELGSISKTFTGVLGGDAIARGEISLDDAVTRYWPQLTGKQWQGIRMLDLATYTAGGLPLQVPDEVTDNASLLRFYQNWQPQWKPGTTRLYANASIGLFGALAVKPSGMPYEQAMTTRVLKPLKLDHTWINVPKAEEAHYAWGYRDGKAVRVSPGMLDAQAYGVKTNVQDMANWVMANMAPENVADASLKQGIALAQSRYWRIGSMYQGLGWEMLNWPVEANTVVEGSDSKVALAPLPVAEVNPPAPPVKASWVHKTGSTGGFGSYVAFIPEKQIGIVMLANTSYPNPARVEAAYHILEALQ

SMILES	difference between the activity on E. COLI B and on E. COLI B Ampi-R (factor) [1]	Remaining activity as percentage (beta-lactamase TEM)	MIC, relative value [2]	resistance to beta-lactamase, in words (beta-lactamase P 99)
N[C@@H](C(=O)NC1C(=O)N2C1SC1(CCOCC1)C2C(=O)O)c1ccccc1 (single isomer, unassigned) [Compound B, 6-(2"-amino-2"-phenylacetamido)-2',3',5',6'-tetrahydro-spiro[penam-2,4'-[4H]pyran]-3-carboxylic acid]	3.5	87%	1.9	–
NC(C(=O)NC1C(=O)N2C1SC1(CCSCC1)C2C(=O)O)c1ccccc1 (stereo not drawn) [Compound F, 6-(2"-amino-2"-phenylacetamido)-2',3',5',6'-tetrahydro-spiro[penam-2,4'-[4H]thiopyran]-3-carboxylic acid]	–	–	15	increased resistance
NC(C(=O)NC1C(=O)N2C1SC1(CC[S+]([O-])CC1)C2C(=O)O)c1ccccc1 (stereo not drawn) [Compound J, 6-(2"-amino-2"-phenylacetamido)-2',3',5',6'-tetrahydro-spiro[penam-2,4'-[4H]thiopyran]-3-carboxylic acid 1'-oxide]	–	–	–	No change in behavior
